Results reported in patent publication US5703056A, “Non-invasive imaging of gene transfer” (priority 1995, dated 1997).
Like-named read-outs stand apart in the source and are kept apart here.

Key:
RG2TK+ and RG2 tumors = test: Tissue sampling of FIAU- and IUdR-derived radioactivity in i.c. and s.c. RG2TK+ and RG2 tumors; format: in vivo, rat; conditions: 24 h, percent dose per gram
Description: Animal preparation and tumor inoculation Two male Fisher 344 rats weighing 250±20 g were anesthetized with a gas mixture consisting of 2% Isoflurane, 70% nitrous oxide and 30% oxygen. A 2% lidocaine gel was applied to the ears and the head was fixed with a stereotaxic device. After midline scalp incision, a burr hole was made through the skull 1 mm posterior and 3 mm lateral to the bregma. The tumor cell suspensions were aspirated into a 50 μl gas tight Hamilton syringe (Ga. 25) and attached to a stereotaxic device. The syringe needle was then inserted 6 mm deep into the caudate nucleus and the cell suspension (10^5 cells in 10 μl) was slowly injected over 2 minutes. RG2TK+ cells were injected into the left hemisphere, and RG2 cells were injected into the right hemisphere. Bone wax was applied to cover the skull defect and the scalp was closed with 4.0 silk suture. Subcutaneous inoculations (10^6 cells in 50 μl) were also performed (RG2TK+ cells into the left flank and RG2 cells into the right flank). After the procedure, the animals were marked and placed in standard cages with water and Rodent LabChow #5001 (Purina Mills, Inc.) ad libitum. Comparison of different "marker substrates" for identifying HSV1-TK expression in animals After 10 days of tumor growth, both animals received i.v. injections of [^123 I]-IUdR (400 uCi) and [^14 C]-FIAU (10 uCi). Radioactivity was allowed to clear from the body over 24 hours to reduce tissue background activity, predominantly due to radiolabelled iodide, the major metabolite of [^123 I]-IUdR. [Tjuvajev, J. G., Muraki, A., Ginos, J., Berk, J., Koutcher, J., Ballon, D., Beattie, B., Finn, R., and Biasberg, R., J. Nucl. Med., 34: 1152-62, 1993; Tjuvajev, J. G., Macapinlac, H. A., Daghighian, F., Scott, A. M., ginos, J. Z., Finn, R. D., Kothari, P., Desai, R., Zhang, Z., Beattie, B., Graham, M., Larson, S., and Blasberg, R. G., J. Nucl. Med., 35: 1407-17, 1994] The rats were killed at 24 hours under anesthesia; samples of tumor and adjacent tissue were disected and weighed, blood and plasma were obtained, and radioactivity was measured. Decay corrected ^123 I-radioactivity was assayed in a Packard AutoGamma 5550 Spectrometer; samples were stored in a refrigerator for 1 week to allow for ^123 I decay (>12 half lives) and ^14 C-radioactivity was measured in a Packard B1600 TriCarb beta spectrometer using external standard quench correction. Sample radioactivity was expressed as a percent of administered dose per gram of tissue of per unit volume of fluid.

[1] = Quantitative autoradiography of 2-[14C]-FIAU after in vivo transfection of RG2 tumors by the STK retrovirus; set-up: species or system rat; conditions: rat, iv, 50 uCi
Description: (§1) Imaging in vivo transfection of RG2 tumors by the STK retrovirus in experimental animals. […] The left hemisphere was inoculated with gp-STK-A2 vector-producer cells only. Ten days after inoculation, animals were injected i.v. with 50 uCi of 2-[^14 C]-FIAU, killed 24 hours later and the brain was processed for QAR and histology. The HSV1-tk transfected tumor was well visualized on the autoradiographic image (FIG. 11B). […] Surrounding normal brain and the area inoculated only with gp-STK-A2 vector-producer cells are poorly or not at all visualized. […] Quantitative analysis yielded mean activities of 0.34±0.24% dose/g for the in vivo transduced RG2(TK+) and 0.028±0.023% dose/g for the gp-STK-A2 vector-producer cell inoculated area prior to rinsing.

[2] = test system: in vivo transduced RG2(TK+) tumor; test: as above; set-up: species or system rat; conditions: 24 h
Description: as §1

SMILES: O=c1[nH]c(=O)n([C@@H]2O[C@H](CO)[C@@H](O)[C@@H]2F)cc1I [FIAU, 2'-fluoro-5-iodo-1-β-D-arabinofuranosyl-uracil]
- Sensitivity* (uptake in RG2TK+ tumor - uptake in RG2 tumor)/(HSV1TK mRNA/S28 RNA IOD in RG2TK+ cells) (RG2TK+ and RG2 tumors; RG2TK+/RG2 i.c. tumors): 0.0025
- Sensitivity* (uptake in RG2TK+ tumor - uptake in RG2 tumor)/(HSV1TK mRNA/S28 RNA IOD in RG2TK+ cells) (RG2TK+ and RG2 tumors; RG2TK+/RG2 s.c. tumors): 0.0150
- tissue uptake at 24 h ([1]; gp-STK-A2 vector-producer cell inoculated area, prior to rinsing, read-out: mean activity): 0.028 ± 0.023 %ID/g
- tissue uptake at 24 h ([1]; in vivo transduced RG2(TK+) tumor, prior to rinsing, read-out: mean activity): 0.34 ± 0.24 %ID/g
- tissue uptake at 24 h ([1]; in vivo transduced RG2(TK+) tumor, read-out: peak activity): 0.96 %ID/g
- adjacent brain activity ([2]; level of detection on the autoradiograms): below the level of detection
- peak activity ([2]; in vivo transduced RG2(TK+) tumor): 0.96 % dose/g
